Patent publication US7741283B2, “Compositions and methods for inhibiting cell proliferation” (St. Louis University, priority 2003, dated 2010)
Where a SMILES comes first, the peptide text is derived from it. The star is where a group is joined. Cbz = O=C(OCc1ccccc1)*

What was measured:
[1] = target: acidic pH binding sites (Neogale vison, UniProt A0A8C7BSJ2); assay: Specific binding of 125I-ligands to Mv1Lu cells at acidic pH; parameters: species or system mink
[2] = tested on: LRP-1; assay: 125I-α2M* binding to Mv1Lu cells at pH 7.4; parameters: species or system mink; settings: for ^125I-α2M* binding to LRP-1: 10 μg/ml, neutral pH, Mv1Lu cells
[3] = tested on: IRS-2; assay: 32P metabolic labeling and immunoprecipitation of IRS-2, Mv1Lu cells; type: cell-based, mink; settings: for Effect of proteolysis inhibitors on IGFBP-3-induced mobility change of IRS-2: Mv1Lu, 1 hr prior to and during IGFBP-3 treatment
[4] = target: T1, acidic pH binding sites (Mus musculus, UniProt P14824); assay: Specific binding of 125I-ligands to MEF cells at acidic pH; settings: for Inhibition of ^125I-α2M* binding to cells: MEF cells, pH 5.5, verapamil and W-5 at 100 μM
T1 sequence (P14824 2-673): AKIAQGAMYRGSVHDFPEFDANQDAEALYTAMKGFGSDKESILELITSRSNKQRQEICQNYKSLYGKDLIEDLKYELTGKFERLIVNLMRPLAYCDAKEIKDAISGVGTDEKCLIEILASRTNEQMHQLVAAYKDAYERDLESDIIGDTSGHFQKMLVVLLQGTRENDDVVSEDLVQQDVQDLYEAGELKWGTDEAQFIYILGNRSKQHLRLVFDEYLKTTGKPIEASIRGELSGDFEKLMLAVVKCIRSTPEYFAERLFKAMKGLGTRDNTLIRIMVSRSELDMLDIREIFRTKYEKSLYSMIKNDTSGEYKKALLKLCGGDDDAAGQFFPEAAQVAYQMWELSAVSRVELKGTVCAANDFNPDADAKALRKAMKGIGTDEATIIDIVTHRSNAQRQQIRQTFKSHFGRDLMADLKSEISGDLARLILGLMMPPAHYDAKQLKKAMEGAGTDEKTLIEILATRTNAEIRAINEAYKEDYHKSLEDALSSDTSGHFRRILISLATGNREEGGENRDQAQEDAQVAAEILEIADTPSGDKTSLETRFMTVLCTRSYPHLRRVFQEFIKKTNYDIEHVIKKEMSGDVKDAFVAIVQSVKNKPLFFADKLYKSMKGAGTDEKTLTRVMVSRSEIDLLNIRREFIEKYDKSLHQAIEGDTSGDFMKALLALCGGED

[5] = target: T1, acidic pH binding sites; assay: Specific binding of 125I-ligands to PEA-13 cells at acidic pH; parameters: endogenous in cells; host or cells: PEA-13 (LRP-1-deficient mouse embryonic fibroblasts)
[6] = tested on: Mv1Lu cells; assay: [methyl-3H] thymidine incorporation (DNA synthesis), Mv1Lu cells; type: cell-based, mink; settings: insulin 10 nM or cyclic RGD peptide 0.01 μg/ml alone
[7] = target: T2, LRP-1 (Mus musculus, UniProt Q91ZX7); assay: 125I-α2M* binding to MEF cells at pH 7.4; settings: 10 μM protein, pH 7.4, MEF
T2 construct: endogenous in cells; host or cells: MEF (mouse embryonic fibroblasts)
T2 sequence (Q91ZX7 20-4545): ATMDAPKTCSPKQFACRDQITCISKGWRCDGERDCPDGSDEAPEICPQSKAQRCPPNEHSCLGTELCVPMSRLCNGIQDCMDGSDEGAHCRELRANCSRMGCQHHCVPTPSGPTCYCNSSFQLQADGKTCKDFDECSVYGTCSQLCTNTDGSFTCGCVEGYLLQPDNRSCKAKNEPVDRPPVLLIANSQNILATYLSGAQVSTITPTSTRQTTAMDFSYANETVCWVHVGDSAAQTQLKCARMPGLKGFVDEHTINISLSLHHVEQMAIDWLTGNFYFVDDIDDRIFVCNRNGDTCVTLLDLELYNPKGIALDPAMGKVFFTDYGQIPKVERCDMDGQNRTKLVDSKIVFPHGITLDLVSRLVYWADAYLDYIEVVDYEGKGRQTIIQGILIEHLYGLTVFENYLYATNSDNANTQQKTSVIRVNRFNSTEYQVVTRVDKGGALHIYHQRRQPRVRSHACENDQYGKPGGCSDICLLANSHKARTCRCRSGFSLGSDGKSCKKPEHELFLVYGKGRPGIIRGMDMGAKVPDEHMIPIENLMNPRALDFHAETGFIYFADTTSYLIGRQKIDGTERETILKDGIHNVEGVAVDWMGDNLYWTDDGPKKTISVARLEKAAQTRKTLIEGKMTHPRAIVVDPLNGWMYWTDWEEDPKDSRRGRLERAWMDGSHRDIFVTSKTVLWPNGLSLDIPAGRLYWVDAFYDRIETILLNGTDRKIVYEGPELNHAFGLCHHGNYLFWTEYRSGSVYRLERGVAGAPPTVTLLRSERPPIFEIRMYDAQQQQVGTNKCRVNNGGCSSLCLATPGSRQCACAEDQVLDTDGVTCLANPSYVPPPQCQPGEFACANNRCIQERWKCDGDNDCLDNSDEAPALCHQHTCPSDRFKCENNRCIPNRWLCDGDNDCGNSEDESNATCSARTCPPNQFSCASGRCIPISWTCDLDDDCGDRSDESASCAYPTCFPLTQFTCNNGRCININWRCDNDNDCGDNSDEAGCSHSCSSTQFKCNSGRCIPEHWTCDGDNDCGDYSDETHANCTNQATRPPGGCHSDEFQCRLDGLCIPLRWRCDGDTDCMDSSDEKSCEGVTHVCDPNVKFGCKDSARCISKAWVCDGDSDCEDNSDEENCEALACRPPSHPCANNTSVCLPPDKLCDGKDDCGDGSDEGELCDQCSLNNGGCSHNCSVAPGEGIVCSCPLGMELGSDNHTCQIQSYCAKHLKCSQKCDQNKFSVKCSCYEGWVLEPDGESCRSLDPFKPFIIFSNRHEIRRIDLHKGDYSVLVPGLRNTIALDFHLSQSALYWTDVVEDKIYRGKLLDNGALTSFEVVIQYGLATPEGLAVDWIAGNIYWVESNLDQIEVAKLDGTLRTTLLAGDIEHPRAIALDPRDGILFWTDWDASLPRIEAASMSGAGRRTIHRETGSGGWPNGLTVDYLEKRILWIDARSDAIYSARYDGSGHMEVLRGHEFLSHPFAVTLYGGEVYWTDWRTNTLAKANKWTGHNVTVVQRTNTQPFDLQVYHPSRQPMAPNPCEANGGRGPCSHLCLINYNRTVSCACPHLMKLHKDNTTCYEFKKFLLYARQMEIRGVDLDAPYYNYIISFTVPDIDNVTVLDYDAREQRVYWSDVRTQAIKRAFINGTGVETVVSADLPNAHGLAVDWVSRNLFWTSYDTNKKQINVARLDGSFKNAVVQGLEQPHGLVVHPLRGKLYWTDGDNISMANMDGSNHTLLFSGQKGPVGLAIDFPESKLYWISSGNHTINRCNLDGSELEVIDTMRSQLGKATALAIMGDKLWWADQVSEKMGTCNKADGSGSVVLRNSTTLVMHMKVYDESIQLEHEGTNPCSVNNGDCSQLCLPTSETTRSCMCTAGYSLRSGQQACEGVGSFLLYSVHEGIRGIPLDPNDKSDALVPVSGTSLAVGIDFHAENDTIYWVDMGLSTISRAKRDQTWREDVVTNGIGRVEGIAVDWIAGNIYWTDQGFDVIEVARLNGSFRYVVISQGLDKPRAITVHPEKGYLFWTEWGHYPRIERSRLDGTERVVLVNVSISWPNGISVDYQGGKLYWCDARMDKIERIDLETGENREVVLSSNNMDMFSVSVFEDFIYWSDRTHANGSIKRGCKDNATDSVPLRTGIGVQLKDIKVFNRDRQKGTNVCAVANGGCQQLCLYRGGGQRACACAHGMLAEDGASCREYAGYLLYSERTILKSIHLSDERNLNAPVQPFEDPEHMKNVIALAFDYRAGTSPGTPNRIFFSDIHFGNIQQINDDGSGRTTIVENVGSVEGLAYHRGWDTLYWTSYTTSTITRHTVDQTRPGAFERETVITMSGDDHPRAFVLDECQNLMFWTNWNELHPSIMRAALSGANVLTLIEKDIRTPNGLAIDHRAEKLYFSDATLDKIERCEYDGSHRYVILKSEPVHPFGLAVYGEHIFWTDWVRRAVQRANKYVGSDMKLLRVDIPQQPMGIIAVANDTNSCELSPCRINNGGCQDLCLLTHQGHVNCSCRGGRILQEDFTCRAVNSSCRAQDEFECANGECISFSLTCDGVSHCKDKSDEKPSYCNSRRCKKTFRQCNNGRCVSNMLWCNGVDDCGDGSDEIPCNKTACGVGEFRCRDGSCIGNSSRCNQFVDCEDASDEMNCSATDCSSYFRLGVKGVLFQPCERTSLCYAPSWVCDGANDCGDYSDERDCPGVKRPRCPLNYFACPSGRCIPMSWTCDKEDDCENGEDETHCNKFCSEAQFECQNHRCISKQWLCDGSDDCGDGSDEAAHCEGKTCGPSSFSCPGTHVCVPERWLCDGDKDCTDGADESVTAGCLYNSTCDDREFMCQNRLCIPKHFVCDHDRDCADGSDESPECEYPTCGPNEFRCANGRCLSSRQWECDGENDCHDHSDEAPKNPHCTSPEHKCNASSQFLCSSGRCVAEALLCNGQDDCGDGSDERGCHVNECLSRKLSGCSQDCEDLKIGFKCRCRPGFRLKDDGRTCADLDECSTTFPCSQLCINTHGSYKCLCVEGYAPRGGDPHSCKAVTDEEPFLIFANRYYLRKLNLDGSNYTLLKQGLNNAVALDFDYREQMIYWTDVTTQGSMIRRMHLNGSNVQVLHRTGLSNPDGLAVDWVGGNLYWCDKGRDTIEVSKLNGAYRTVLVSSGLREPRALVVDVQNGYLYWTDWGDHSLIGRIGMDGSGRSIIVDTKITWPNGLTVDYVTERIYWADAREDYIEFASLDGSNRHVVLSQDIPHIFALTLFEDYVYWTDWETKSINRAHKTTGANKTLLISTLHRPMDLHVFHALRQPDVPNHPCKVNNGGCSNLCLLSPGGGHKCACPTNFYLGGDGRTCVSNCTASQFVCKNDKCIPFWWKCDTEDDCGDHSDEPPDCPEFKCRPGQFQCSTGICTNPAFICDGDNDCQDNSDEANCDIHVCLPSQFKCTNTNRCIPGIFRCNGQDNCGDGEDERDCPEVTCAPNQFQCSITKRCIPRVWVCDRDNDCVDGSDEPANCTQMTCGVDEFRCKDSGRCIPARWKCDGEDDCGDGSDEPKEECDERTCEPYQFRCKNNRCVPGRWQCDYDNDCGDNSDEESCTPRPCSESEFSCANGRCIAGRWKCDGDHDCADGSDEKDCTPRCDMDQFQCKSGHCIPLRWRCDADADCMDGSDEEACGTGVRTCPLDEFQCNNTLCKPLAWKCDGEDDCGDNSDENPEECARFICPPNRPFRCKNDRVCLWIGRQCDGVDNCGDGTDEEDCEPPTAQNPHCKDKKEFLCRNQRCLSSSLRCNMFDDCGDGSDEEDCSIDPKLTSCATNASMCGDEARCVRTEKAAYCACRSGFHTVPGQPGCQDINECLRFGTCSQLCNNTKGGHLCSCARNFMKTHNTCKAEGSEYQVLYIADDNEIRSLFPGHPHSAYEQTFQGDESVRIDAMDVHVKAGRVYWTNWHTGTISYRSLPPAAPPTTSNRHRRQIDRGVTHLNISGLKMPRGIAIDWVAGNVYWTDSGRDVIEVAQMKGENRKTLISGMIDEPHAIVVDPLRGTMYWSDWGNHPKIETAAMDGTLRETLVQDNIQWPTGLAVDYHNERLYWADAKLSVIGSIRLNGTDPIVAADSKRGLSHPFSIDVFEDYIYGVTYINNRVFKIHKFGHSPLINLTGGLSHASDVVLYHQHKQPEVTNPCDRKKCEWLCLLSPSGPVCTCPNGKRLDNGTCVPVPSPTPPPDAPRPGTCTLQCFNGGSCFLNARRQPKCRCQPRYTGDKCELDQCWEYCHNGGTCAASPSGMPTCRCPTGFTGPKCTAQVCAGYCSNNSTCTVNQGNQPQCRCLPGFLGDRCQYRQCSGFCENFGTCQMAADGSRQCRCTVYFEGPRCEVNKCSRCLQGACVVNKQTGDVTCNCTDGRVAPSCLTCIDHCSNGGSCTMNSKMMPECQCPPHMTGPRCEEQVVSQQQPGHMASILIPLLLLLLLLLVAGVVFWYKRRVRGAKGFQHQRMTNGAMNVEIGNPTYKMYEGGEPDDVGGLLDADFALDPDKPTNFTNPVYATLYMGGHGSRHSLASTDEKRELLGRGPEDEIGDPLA

acidic pH binding sites (Neogale vison, UniProt A0A8C7BSJ2), sequence (A0A8C7BSJ2 entry or part of it): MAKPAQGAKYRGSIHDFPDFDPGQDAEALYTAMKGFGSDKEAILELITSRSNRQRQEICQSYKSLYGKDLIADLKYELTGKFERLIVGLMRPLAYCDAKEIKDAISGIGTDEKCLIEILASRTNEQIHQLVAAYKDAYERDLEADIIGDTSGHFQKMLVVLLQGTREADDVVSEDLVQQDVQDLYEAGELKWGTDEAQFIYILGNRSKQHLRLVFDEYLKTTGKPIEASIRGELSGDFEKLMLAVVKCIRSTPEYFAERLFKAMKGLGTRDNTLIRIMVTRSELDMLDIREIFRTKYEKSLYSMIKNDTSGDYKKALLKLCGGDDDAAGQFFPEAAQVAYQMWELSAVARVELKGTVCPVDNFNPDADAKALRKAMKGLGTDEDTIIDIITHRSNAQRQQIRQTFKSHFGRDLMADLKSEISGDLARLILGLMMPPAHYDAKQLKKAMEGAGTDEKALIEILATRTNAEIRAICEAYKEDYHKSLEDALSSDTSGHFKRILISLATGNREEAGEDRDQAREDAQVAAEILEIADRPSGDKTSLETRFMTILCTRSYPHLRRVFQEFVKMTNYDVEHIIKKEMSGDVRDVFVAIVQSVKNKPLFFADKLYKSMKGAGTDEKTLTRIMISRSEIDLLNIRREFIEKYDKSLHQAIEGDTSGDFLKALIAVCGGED

chondroitin sulfate A [reference compound]
Inhibition of ^125I-α2M* binding ([1]; Mv1Lu cells, pH 5): potent inhibitors
^125I-α2M* binding to LRP-1 [2]: did not significantly affect

Pseudomonas exotoxin: a ligand of LRP-1
Inhibition of ^125I-α2M* binding to cells ([1]; 0.5 μM, Mv1Lu cells, pH 5 or 6): did not effectively inhibit

[O]=[V]([O-])([O-])[O-] [vanadale, reference compound]
Effect of phosphatase inhibitors on IGFBP-3-induced specific dephosphorylation / mobility change of IRS-2 [3]: did not appear to affect

NCCCCCCNS(=O)(=O)c1cccc2c(Cl)cccc12 [W-7, reference compound]
Inhibition of ^125I-α2M* binding to cells [4]: less effective inhibitors

CSCC[C@@H](C=O)NC(=O)[C@H](CC(C)C)NC(=O)[C@H](CC(C)C)NC(C)=O [calpain inhibitor II, reference compound] (Ac-Leu-Leu-Met-aldehyde)
Effect of proteolysis inhibitors on IGFBP-3-induced mobility change of IRS-2 [3]: did not affect

CN(C)c1cccc2c(S(=O)(=O)NCCCCCN)cccc12 [monodansylcadaverine, reference compound]
Inhibition of ^125I-α2M* binding to cells [4]: less effective inhibitors

chondroitin sulfate C [reference compound]
Inhibition of ^125I-α2M* binding ([1]; Mv1Lu cells, pH 5): potent inhibitors
^125I-α2M* binding to LRP-1 [2]: did not significantly affect

native α2M: human α2-macroglobulin purified from plasma
IC50 ([5]; PEA-13 cells, acidic pH, read-out: IC50, inhibition of ^125I-α2M* binding): > 400 nM

CC(C)C[C@@H](C=O)NC(=O)[C@H](CC(C)C)NC(=O)[C@H](CC(C)C)NC(=O)OCc1ccccc1 [MG-132, reference compound] (Cbz-Leu-Leu-Leu-aldehyde)
Effect of proteolysis inhibitors on IGFBP-3-induced mobility change of IRS-2 [3]: did not affect

NCCCCCCNS(=O)(=O)c1cccc2ccccc12 [W-5, reference compound]
Inhibition of ^125I-α2M* binding to cells [4]: inactive

COC[C@@H]([C@H](O)[C@H](O)C(=O)NCC[C@H](C)c1nc(/C=C/C[C@@H]2O[C@]3(C[C@@H](O)[C@@H]2C)O[C@H]([C@H](C[C@H](O)[C@H](C)[C@H](O)[C@H](C)/C=C(C)/C(C)=C/C=C/C(C)=C\C#N)OC)[C@H](OP(=O)(O)O)C3(C)C)co1)N(C)C [calyculin A, reference compound]
Effect of phosphatase inhibitors on IGFBP-3-induced specific dephosphorylation / mobility change of IRS-2 [3]: did not appear to affect

CC1(C(=O)O)C2CCC(O2)C1(C)C(=O)O (stereo not drawn) [cantharidic acid, reference compound]
Effect of phosphatase inhibitors on IGFBP-3-induced specific dephosphorylation / mobility change of IRS-2 [3]: did not appear to affect

microcystin [reference compound]
Effect of phosphatase inhibitors on IGFBP-3-induced specific dephosphorylation / mobility change of IRS-2 [3]: did not appear to affect

C=C1[C@@H](O)[C@@H]2O[C@]3(CC[C@H](/C=C/[C@@H](C)[C@@H]4CC(C)=C[C@@]5(O[C@H](C[C@@](C)(O)C(=O)O)CC[C@H]5O)O4)O3)CC[C@H]2O[C@@H]1[C@@H](O)C[C@H](C)[C@H]1O[C@@]2(CCCCO2)CC[C@H]1C [okadaic acid, reference compound]
Effect of phosphatase inhibitors on IGFBP-3-induced specific dephosphorylation / mobility change of IRS-2 [3]: effectively blocked

cyclo GRGDSPA (cyclic) [cyclic RGD peptide, reference compound]
Effect alone on TGF-β1-induced inhibition of DNA synthesis [6]: Neither insulin (10 nM) nor the cyclic RGD peptide (0.01 μg/ml) alone affected

heparin sulfate [reference compound]
Enhancement of ^125I-α2M* binding ([1]; 1 μg/ml, Mv1Lu cells, pH 5): ~400%
Inhibition of ^125I-α2M* binding ([1]; 10 μg/ml, Mv1Lu cells, pH 5): > 80%
^125I-α2M* binding to LRP-1 [2]: did not significantly affect

apoE: human apoE
Specific binding of ^125I-α2M* ([1]; 10 μM protein, pH 5.5, Mv1Lu): completely blocked
Specific binding of ^125I-α2M* ([4]; 10 μM protein, pH 5.5, MEF): completely blocked
^125I-α2M* binding ([2]; 10 μM protein, pH 7.4, Mv1Lu): did not have a significant effect
^125I-α2M* binding [7]: did not have a significant effect
Specific binding of ^125I-α2M* ([5]; 10 μM protein, pH 5.5, PEA-13): completely blocked

chondroitin sulfate B [reference compound]
Inhibition of ^125I-α2M* binding ([1]; Mv1Lu cells, pH 5): potent inhibitors
^125I-α2M* binding to LRP-1 [2]: did not significantly affect
